Results on 22 compounds are retold here after patent US11679108B2, “Aromatic heterocyclic compound, and pharmaceutical composition and use thereof” (GUANGZHOU HENOVCOM BIOSCIENCE CO., LTD., priority 2018, dated 2023).

As a reminder, the IC50 is the concentration that gives 50% inhibition. Higher therefore signals weaker potency.

This test addresses ATX (Homo sapiens, UniProt Q13822). As to the kind of experiment: Analysis in vitro: LPC was used as substrate for screening enzyme activity (Amplex Red fluorescence). Particulars: inhibitory activity against ATX, with LPC as substrate. In kind it is biochemical. The source says:
Analysis In Vitro: LPC was Used as Substrate for Screening Enzyme Activity
Principle: Lysophosphatidylcholine (LPC) as substrate is hydrolyzed by using the activity of lysoPLD enzyme, to produce lysophosphatidic acid (LPA) and choline, which is oxidized to produce H2O2 under the action of choline oxidase. In presence of horse radish peroxidase (HPR), Amplex Red reagent is reacted with H2O2 in a quantitative chemistry ratio of 1 to 1, to produce strong fluorescence products, which are detected by a fluorescent quantitative test.
Experimental procedures: the compounds to be tested were dissolved in DMSO, to prepare 10 mM of stock solution, which was diluted in a gradient concentration of 3 times with DMSO from 10 mM, to generate 10 concentration gradients. The reaction buffer solution was used for preparing a mixed solution 1 of 2 ng/μl ATX, 2 U/ml HRP and 0.2 U/ml choline oxidase in a final concentration. 20 μl of the above mixed solution 1 was added to each hole of an experiment board, […]. The compounds diluted with DMSO were transferred into an experiment board with Echo550. The reaction buffer solution was used for preparing a mixed solution 2 of […] LPC and 400 μM Amplex Red in a final concentration. 20 μl of the above mixed solution 2 was added to each hole of the experiment board. After addition, the experiment board was shook for 30 seconds on a shaker, and incubated for 30 minutes. Envision was used to read the fluorescence signals with an exciting light at 530 nm and emitted light at 590 nm. Inhibition ratio of the compounds to enzyme reaction was calculated according to the ratio of fluorescence, and IC50 of the compounds was analyzed and calculated by software, seeing Table 1.

`CCc1nc2sc(N3CCN(CC(=O)N4CC(O)C4)[C@@H](C(=O)OC)C3)nn2c1N(C)c1nc(-c2ccc(F)cc2)c(C#N)s1` [Example 84, methyl (R)-4-{5-[(5-cyano-4-(4-fluorophenyl)thiazol-2-yl)(methyl)amino]-6-ethylimidazo[2,1-b][1,3,4]thiadiazol-2-yl}-1-(2-(3-hydroxyazetidin-1-yl)-2-oxoethyl)piperazine-2-carboxylate] showed an IC50 of 100 to 500 nM. The compound `CCc1nc2sc(N3CCCC(N(C)S(C)(=O)=O)C3)nn2c1N(C)c1nc(-c2ccc(F)cc2)c(C#N)s1` (stereo not shown) [Example 13, N-{1-[5-((5-cyano-4-(4-fluorophenyl)thiazol-2-yl)(methyl)amino)-6-ethylimidazo[2,1-b][1,3,4]thiadiazol-2-yl]piperidin-3-yl}-N-methylmethanesulfonamide] returned an IC50 of 100 to 500 nM. With `CCc1nc2sc(C3CCN(S(C)(=O)=O)CC3)nn2c1N(C)c1nc(-c2ccc(F)cc2)c(C#N)s1` [Example 16, 2-{[6-ethyl-2-(1-(methylsulfonyl)piperidin-4-yl)imidazo[2,1-b][1,3,4]thiadiazol-5-yl](methyl)amino}-4-(4-fluorophenyl)-thiazole-5-carbonitrile] the figure was at least 1000 nM. With `CCc1nc2sc(N3CCC(N(C)C(=O)N(C)C)C3)nn2c1N(C)c1nc(-c2ccc(F)cc2)c(C#N)s1` (stereo not shown) [Example 31, 1-{1-[5-((5-cyano-4-(4-fluorophenyl)thiazol-2-yl)(methyl)amino)-6-ethylimidazo[2,1-b][1,3,4]thiadiazol-2-yl]pyrrolidin-3-yl}-1,3,3-trimethylurea] the figure was 100 to 500 nM; with `CCc1nc2sc(N3CCC(N(C)C(=O)NC(C)(C)C)C3)nn2c1N(C)c1nc(-c2ccc(F)cc2)c(C#N)s1` (stereo not shown) [Example 25, 3-tertbutyl-1-{1-[5-((5-cyano-4-(4-fluorophenyl)thiazol-2-yl)(methyl)amino)-6-ethylimidazo[2,1-b][1,3,4]thiadiazol-2-yl]pyrrolidin-3-yl}-1-methylurea], 100 to 500 nM; with `CCc1nc2sc(N3CC[C@@H](N(C)CC(=O)N4CC(C(=O)OC)C4)C3)nn2c1N(C)c1nc(-c2ccc(F)cc2)c(C#N)s1` [Example 42, methyl (R)-1-{2-[(1-(5-((5-cyano-4-(4-fluorophenyl)thiazol-2-yl)(methyl)amino)-6-ethylimidazo[2,1-b][1,3,4]thiadiazol-2-yl)pyrrolidin-3-yl)(methyl)amino]acetyl}azetidine-3-carboxylate], 100 to 500 nM. `CCc1nc2sc(N3CCC(N(C)C(=O)NC)C3)nn2c1N(C)c1nc(-c2ccc(F)cc2)c(C#N)s1` (stereo not shown) [Example 29, 1-{1-[5-((5-cyano-4-(4-fluorophenyl)thiazol-2-yl)(methyl)amino)-6-ethylimidazo[2,1-b][1,3,4]thiadiazol-2-yl}pyrrolidin-3-yl}-1,3-dimethylurea] had a concentration for half-maximal inhibition (IC50) of 0.01 to 100 nM.

In the case of `CCc1nc2sc(N3CC[C@@H](N(CC)CC(=O)N4CC(O)C4)C3)nn2c1N(C)c1nc(-c2ccc(F)cc2)c(C#N)s1` [Example 89, (R)-2-{[6-ethyl-2-(3-(ethyl(2-(3-hydroxyazetidin-1-yl)-2-oxoethyl)amino)pyrrolidin-1-yl)imidazo[2,1-b][1,3,4]thiadiazol-5-yl](methyl)amino}-4-(4-fluorophenyl)thiazole-5-carbonitrile], the IC50 was 100 to 500 nM. With `CCc1nc2sc(N3CC[C@H](N(C)CC(=O)N4CC(C(=O)OC)C4)C3)nn2c1N(C)c1nc(-c2ccc(F)cc2)c(C#N)s1` [Example 43, methyl (S)-1-{2-[(1-(5-((5-cyano-4-(4-fluorophenyl)thiazol-2-yl)(methyl)amino)-6-ethylimidazo[2,1-b][1,3,4]thiadiazol-2-yl)pyrrolidin-3-yl)(methyl)amino]acetyl}azetidine-3-carboxylate] the figure was 0.01 to 100 nM; with `CCc1nc2sc(N3CC[C@@H](N(C)CC(=O)N4CC(C#N)C4)C3)nn2c1N(C)c1nc(-c2ccc(F)cc2)c(C#N)s1` [Example 46, (R)-2-{[2-(3-((2-(3-cyanoazetidin-1-yl)-2-oxoethyl)(methyl)amino)pyrrolidin-1-yl)-6-ethylimidazo[2,1-b][1,3,4]thiadiazol-5-yl](methyl)amino}-4-(4-fluorophenyl)thiazole-5-carbonitrile], 100 to 500 nM. With `CCc1nc2sc(N3CCC(N(C)C(=O)NC4CC4)C3)nn2c1N(C)c1nc(-c2ccc(F)cc2)c(C#N)s1` (stereo not shown) [Example 27, 1-{1-[5-((5-cyano-4-(4-fluorophenyl)thiazol-2-yl)(methyl)amino)-6-ethylimidazo[2,1-b][1,3,4]thiadiazol-2-yl}pyrrolidin-3-yl}-3-cyclopropyl-1-methylurea] the figure was 100 to 500 nM; with `CCc1nc2sc(N3CCCC(N(C)C(=O)NC(C)(C)C)C3)nn2c1N(C)c1nc(-c2ccc(F)cc2)c(C#N)s1` (stereo not shown) [Example 26, 3-tert-butyl-1-{1-[5-((5-cyano-4-(4-fluorophenyl)thiazol-2-yl)(methyl)amino)-6-ethylimidazo[2,1-b][1,3,4]thiadiazol-2-yl]piperidin-3-yl}-1-methylurea], at least 1000 nM. The result for `CCc1nc2sc(N3CCC(N(C)C(=O)N4CCOCC4)C3)nn2c1N(C)c1nc(-c2ccc(F)cc2)c(C#N)s1` (stereo not shown) [Example 32, N-{1-[5-((5-cyano-4-(4-fluorophenyl)thiazol-2-yl)(methyl)amino)-6-ethylimidazo[2,1-b][1,3,4]thiadiazol-2-yl}pyrrolidin-3-yl}-N-methylmorpholine-4-carboxamide] reads 100 to 500 nM. For `CCc1nc2sc(N3CC4(C3)CN(S(C)(=O)=O)C4)nn2c1N(C)c1nc(-c2ccc(F)cc2)c(C#N)s1` [Example 5], the IC50 lay in the range of 500 to 1000 nM. In turn, `CCc1nc2sc(N3CCC(N(C)CC(=O)N4CC(F)C4)C3)nn2c1N(C)c1nc(-c2ccc(F)cc2)c(C#N)s1` (stereo not shown) [Example 33, 2-{[6-ethyl-2-(3-((2-(3-fluoroazetidin-1-yl)-2-oxoethyl)(methyl)amino)pyrrolidin-1-yl)imidazo[2,1-b][1,3,4]thiadiazol-5-yl](methyl)amino}-4-(4-fluorophenyl)thiazole-5-carbonitrile] came in with an IC50 of 0.01 to 100 nM. With `CCc1nc2sc(C3CCN(C(N)=O)CC3)nn2c1N(C)c1nc(-c2ccc(F)cc2)c(C#N)s1` [Example 18, 4-{5-[(5-cyano-4-(4-fluorophenyl)thiazol-2-yl](methyl)amino]-6-ethylimidazo[2,1-b][1,3,4]thiadiazol-2-yl}piperidine-1-carboxamide] the figure was 100 to 500 nM; with `CCc1nc2sc(N3CCN(CC(=O)N4CC(O)C4)[C@H](CO)C3)nn2c1N(C)c1nc(-c2ccc(F)cc2)c(C#N)s1` [Example 82, (S)-2-{[6-ethyl-2-(4-(2-(3-hydroxyazetidin-1-yl)-2-oxoethyl)-3-(hydroxymethyl)piperazin-1-yl)imidazo[2,1-b][1,3,4]thiadiazol-5-yl](methyl)amino}-4-(4-fluorophenyl)thiazole-5-carbonitrile], 100 to 500 nM; with `CCc1nc2sc(N3CC[C@@H](N(C)CC(=O)N4CC(C(=O)O)C4)C3)nn2c1N(C)c1nc(-c2ccc(F)cc2)c(C#N)s1` [Example 44, (R)-1-{2-[(1-(5-((5-cyano-4-(4-fluorophenyl)thiazol-2-yl)(methyl)amino)-6-ethylimidazo[2,1-b][1,3,4]thiadiazol-2-yl}pyrrolidin-3-yl)(methyl)amino]acetyl}azetidine-3-carboxylic acid], 100 to 500 nM. Regarding `CCc1nc2sc(N3CCN(CC(=O)N4CC(O)C4)[C@@H](CO)C3)nn2c1N(C)c1nc(-c2ccc(F)cc2)c(C#N)s1` [Example 85, (R)-2-{[6-ethyl-2-(4-(2-(3-hydroxyazetidin-1-yl)-2-oxoethyl)-3-(hydroxymethyl)piperazin-1-yl)imidazo[2,1-b][1,3,4]thiadiazol-5-yl](methyl)amino}-4-(4-fluorophenyl)thiazole-5-carbonitrile], the IC50 lay in the range of 500 to 1000 nM. With `CN(c1nc(-c2ccc(F)cc2)c(C#N)s1)c1c(CCO)nc2sc(N3CC[C@@H](N(C)CC(=O)N4CC(O)C4)C3)nn12` [Example 87, (R)-4-(4-fluorophenyl)-2-{[2-(3-((2-(3-hydroxyazetidin-1-yl)-2-oxoethyl)(methyl)amino)pyrrolidin-1-yl)-6-(2-hydroxyethyl)imidazo[2,1-b][1,3,4]thiadiazol-5-yl](methyl)amino}thiazole-5-carbonitrile] the figure was 500 to 1000 nM; with `CCc1nc2sc(N3CCN(CC(=O)N4CC(O)C4)[C@H](C(=O)NC)C3)nn2c1N(C)c1nc(-c2ccc(F)cc2)c(C#N)s1` [Example 83, (S)-4-{5-[(5-cyano-4-(4-fluorophenyl)thiazol-2-yl)(methyl)amino]-6-ethylimidazo[2,1-b][1,3,4]thiadiazol-2-yl}-1-(2-(3-hydroxyazetidin-1-yl)-2-oxoethyl)-N-methylpiperazine-2-carboxamide], 500 to 1000 nM. With `CCc1nc2sc(N3CC[C@@H](N(C)CC(=O)N4CCOCC4)C3)nn2c1N(C)c1nc(-c2ccc(F)cc2)c(C#N)s1` [Example 40, (R)-2-{[6-ethyl-2-(3-(methyl(2-morpholino-2-oxoethyl)amino)pyrrolidin-1-yl)imidazo[2,1-b][1,3,4]thiadiazol-5-yl](methyl)amino}-4-(4-fluorophenyl)thiazole-5-carbonitrile], the IC50 lay within 100 to 500 nM.
